Assay results as given in PubChem BioAssay AID248 (DTP/NCI, 2004).
Several values for one entry are separate records, joined by “and”; a condition that tells them apart may be missing. Equal values may be shown once. Inconclusive results and toxic doses are left out. Cut-off read from the data, not from the text of the source: active = T/C of 150% or more; inactive = T/C below 125%.

System: L1210 leukemia ip in BDF1 mice, survival T/C
Experiment: NCI In Vivo Anticancer Drug Screen. Data for tumor model L1210 Leukemia (intraperitoneal) in B6D2F1 (BDF1) mice
Conditions: endpoint: mean survival time, higher = longer survival
Method in brief: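 Mice bearing the transplanted tumor received compound or vehicle. Survival of the treated group was divided by that of the vehicle-treated control group to give the ratio.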

[1] = dose: 100.0 mg/kg/injection, schedule: Q04DX003 (ip), vehicle: saline with Tween-80
[2] = dose: 200.0 mg/kg/injection, schedule: Q04DX003 (ip), vehicle: saline with Tween-80
[3] = dose: 400.0 mg/kg/injection, schedule: Q04DX003 (ip), vehicle: saline with Tween-80
[4] = dose: 100.0 mg/kg/injection, schedule: Q04DX002 (ip), vehicle: saline with Tween-80
[5] = dose: 400.0 mg/kg/injection, schedule: Q04DX002 (ip), vehicle: saline with Tween-80
[6] = dose: 100.0 mg/kg/injection, schedule: Q01DX009 (ip), vehicle: Klucel (hydroxypropylcellulose) (HPC)
[7] = dose: 100.0 mg/kg/injection, schedule: Q04DX003 (ip), vehicle: Klucel (hydroxypropylcellulose) (HPC)
[8] = dose: 200.0 mg/kg/injection, schedule: Q01DX009 (ip), vehicle: Klucel (hydroxypropylcellulose) (HPC)
[9] = dose: 200.0 mg/kg/injection, schedule: Q04DX003 (ip), vehicle: Klucel (hydroxypropylcellulose) (HPC)
[10] = dose: 400.0 mg/kg/injection, schedule: Q04DX003 (ip), vehicle: Klucel (hydroxypropylcellulose) (HPC)
[11] = dose: 100.0 mg/kg/injection, schedule: Q01DX001 (ip), vehicle: saline
[12] = dose: 100.0 mg/kg/injection, schedule: Q04DX003 (ip), vehicle: saline
[13] = dose: 200.0 mg/kg/injection, schedule: Q01DX001 (ip), vehicle: saline
[14] = dose: 200.0 mg/kg/injection, schedule: Q04DX003 (ip), vehicle: saline
[15] = dose: 400.0 mg/kg/injection, schedule: Q01DX001 (ip), vehicle: saline
[16] = dose: 400.0 mg/kg/injection, schedule: Q04DX003 (ip), vehicle: saline
[17] = dose: 100.0 mg/kg/injection, schedule: Q01DX009 (ip), vehicle: saline
[18] = dose: 25.0 mg/kg/injection, schedule: Q01DX009 (ip), vehicle: Klucel (hydroxypropylcellulose) (HPC)
[19] = dose: 200.0 mg/kg/injection, schedule: Q04DX002 (ip), vehicle: saline with Tween-80

Measured: T/C

COc1ccc(C2=CC(O)CC(c3ccccc3)C2c2ccccc2)cc1 (stereo not given)
inactive: [1] 105 % of control | [2] 103 % of control | [3] 91 % of control

CS(=O)(=NC(=S)Nc1ccccc1)c1ccccc1 (stereo not given)
inactive: dose: 75.0 mg/kg/injection, schedule: Q01DX009 (ip), vehicle: saline 97 % of control | dose: 150.0 mg/kg/injection, schedule: Q01DX009 (ip), vehicle: saline 100 % of control | dose: 300.0 mg/kg/injection, schedule: Q01DX009 (ip), vehicle: saline 100 % of control

Nc1nc(N)nc(Cl)n1
inactive: [4] 98 % of control | [5] 95 % of control

CCOC(=O)/C=C(\C)OC
inactive: [6] 102 % of control | [7] 96 % of control | [8] 97 % of control | [9] 105 % of control | dose: 400.0 mg/kg/injection, schedule: Q01DX009 (ip), vehicle: Klucel (hydroxypropylcellulose) (HPC) 94 % of control | [10] 100 % of control

O=C(O)/C=C/C(=O)Nc1ccc(I)cc1
inactive: dose: 50.0 mg/kg/injection, schedule: Q04DX003 (ip), vehicle: saline with Tween-80 104 % of control | [1] 104 % of control | [2] 104 % of control

O=C(N/N=C\c1ccc(/C=N\NC(=O)c2ccc(O)cc2)cc1)c1ccc(O)cc1
inactive: dose: 50.0 mg/kg/injection, schedule: Q01DX009 (ip), vehicle: saline with Tween-80 112 % of control | dose: 100.0 mg/kg/injection, schedule: Q01DX009 (ip), vehicle: saline with Tween-80 94 % of control | dose: 200.0 mg/kg/injection, schedule: Q01DX009 (ip), vehicle: saline with Tween-80 105 % of control

O=C1c2ccccc2C(=O)N1C/C=C/CN1C(=O)c2ccccc2C1=O
inactive: [11] 95 % of control | [12] 101 % of control | [13] 98 % of control | [14] 104 % of control | [15] 91 % of control | [16] 102 % of control

CC(Br)C(=O)NCC(=O)NCC(=O)O (stereo not given)
inactive: [17] 100 % of control | [12] 101 % of control | dose: 200.0 mg/kg/injection, schedule: Q01DX009 (ip), vehicle: saline 89 % of control | [14] 101 % of control | dose: 400.0 mg/kg/injection, schedule: Q01DX009 (ip), vehicle: saline 90 % of control | [16] 97 % of control

O=[N+]([O-])c1ccc(C(F)(F)F)cc1
inactive: dose: 50.0 mg/kg/injection, schedule: Q01DX009 (ip), vehicle: other 104 % of control | dose: 100.0 mg/kg/injection, schedule: Q01DX009 (ip), vehicle: other 101 % of control

CCN(CC)C(=O)C1CN2CCc3cc(OC)c(OC)cc3C2CC1OC(C)=O (stereo not given)
inactive: dose: 6.25 mg/kg/injection, schedule: Q01DX009 (ip), vehicle: Klucel (hydroxypropylcellulose) (HPC) 94 % of control | dose: 12.5 mg/kg/injection, schedule: Q01DX009 (ip), vehicle: Klucel (hydroxypropylcellulose) (HPC) 97 % of control | dose: 25.0 mg/kg/injection, schedule: Q01DX001 (ip), vehicle: water 92 % of control | [18] 94 % of control | dose: 25.0 mg/kg/injection, schedule: Q04DX003 (ip), vehicle: Klucel (hydroxypropylcellulose) (HPC) 103 % of control | dose: 50.0 mg/kg/injection, schedule: Q01DX001 (ip), vehicle: water 111 % of control | dose: 50.0 mg/kg/injection, schedule: Q01DX009 (ip), vehicle: Klucel (hydroxypropylcellulose) (HPC) 103 % of control | dose: 50.0 mg/kg/injection, schedule: Q04DX003 (ip), vehicle: Klucel (hydroxypropylcellulose) (HPC) 100 % of control | dose: 100.0 mg/kg/injection, schedule: Q01DX001 (ip), vehicle: water 97 % of control | [6] 103 % of control | [7] 97 % of control | [8] 115 % of control

CC(=O)Nc1ccc(S(=O)(=O)NC(=O)NC(C)C)cc1
inactive: [1] 103 % of control | [2] 97 % of control | [3] 100 % of control

C=C(Cl)CSC(=N)N
inactive: dose: 10.0 mg/kg/injection, schedule: Q01DX009 (ip), vehicle: saline 109 % of control | dose: 12.0 mg/kg/injection, schedule: Q01DX009 (ip), vehicle: Klucel (hydroxypropylcellulose) (HPC) 88 % of control | dose: 20.0 mg/kg/injection, schedule: Q01DX009 (ip), vehicle: saline 101 % of control | [18] 103 % of control | [12] 108 % of control | [14] 106 % of control | [16] 104 % of control

Cc1cc(=O)c2cc(Cl)cc(Br)c2[nH]1
inactive: [11] 94 % of control | [13] 96 % of control | [15] 103 % of control

Cc1ccccc1NC(=O)Oc1ccc2ccccc2c1
inactive: dose: 100.0 mg/kg/injection, schedule: Q04DX002 (ip), vehicle: Klucel (hydroxypropylcellulose) (HPC) 106 % of control | dose: 200.0 mg/kg/injection, schedule: Q04DX002 (ip), vehicle: Klucel (hydroxypropylcellulose) (HPC) 103 % of control | dose: 400.0 mg/kg/injection, schedule: Q04DX002 (ip), vehicle: Klucel (hydroxypropylcellulose) (HPC) 106 % of control

C/C(=N/NC(=O)CC#N)c1ccccc1
inactive: [4] 101 % of control | [19] 104 % of control | [5] 95 % of control

CCCCCCCCCCCCCCCCCCNC(=O)Nc1cccc(OC)c1
inactive: dose: 25.0 mg/kg/injection, schedule: Q04DX002 (ip), vehicle: saline with Tween-80 102 % of control | dose: 50.0 mg/kg/injection, schedule: Q04DX002 (ip), vehicle: saline with Tween-80 89 % of control

CC(C)P(=O)(CC(=O)O)c1ccccc1 (stereo not given)
inactive: [4] 100 % of control | [5] 97 % of control

O=C1c2cc([N+](=O)[O-])ccc2-c2cc(Cl)c(Cl)cc21
inactive: [9] 91 % of control | [10] 94 % of control

CC1CC[N+]2(CC(=O)c3ccc(Br)cc3)CCCC12 (stereo not given)
inactive: dose: 12.5 mg/kg/injection, schedule: Q01DX001 (ip), vehicle: saline 101 % of control | dose: 25.0 mg/kg/injection, schedule: Q01DX001 (ip), vehicle: saline 104 % of control | dose: 50.0 mg/kg/injection, schedule: Q01DX001 (ip), vehicle: saline 98 % of control

O=C(/C=C/c1cccnc1)/C=C/c1cccnc1
inactive: dose: 80.0 mg/kg/injection, schedule: Q01DX009 (ip), vehicle: Klucel (hydroxypropylcellulose) (HPC) 108 % of control

COC(=O)CCC(=O)/C=C1/Nc2ccccc2C1=O
inactive: [1] 92 % of control | [2] 95 % of control | [3] 90 % of control

CCOC(=O)C1(C(=O)OCC)COC(C)(C)OC1
inactive: [12] 103 % of control | [14] 118 % of control | [16] 106 % of control

CCn1c(CC(O)(C(F)(F)F)C(F)(F)F)nc2ccccc21
inactive: [1] 101 % of control | [2] 98 % of control | [3] 101 % of control

CCCCCCCCCCCCNC=O
inactive: [17] 94 % of control

CCN(C(=O)NC(C)(C)C)c1cccc(C)c1
inactive: dose: 12.5 mg/kg/injection, schedule: Q01DX009 (ip), vehicle: saline with Tween-80 108 % of control | dose: 25.0 mg/kg/injection, schedule: Q01DX009 (ip), vehicle: saline with Tween-80 105 % of control and 106 % of control | dose: 100.0 mg/kg/injection, schedule: Q01DX001 (ip), vehicle: saline with Tween-80 122 % of control | [4] 101 % of control and 86 % of control | [1] 102 % of control | [19] 94 % of control and 97 % of control | [2] 105 % of control | dose: 400.0 mg/kg/injection, schedule: Q01DX001 (ip), vehicle: saline with Tween-80 103 % of control | [5] 101 % of control

C1CCC2(CC1)SCCCS2
inactive: [11] 102 % of control | [13] 113 % of control | [15] 110 % of control

O=C(NCCCl)Nc1ccc2c(c1)CCC2
inactive: [7] 94 % of control and 107 % of control | [9] 103 % of control and 90 % of control | [10] 92 % of control

CCOc1ccc(-n2c(=O)c(N=Nc3ccc(Cl)cc3)c(O)n(-c3ccc(C)cc3)c2=S)cc1
inactive: dose: 100.0 mg/kg/injection, schedule: Q01DX001 (ip), vehicle: Klucel (hydroxypropylcellulose) (HPC) 100 % of control | dose: 200.0 mg/kg/injection, schedule: Q01DX001 (ip), vehicle: Klucel (hydroxypropylcellulose) (HPC) 107 % of control | dose: 400.0 mg/kg/injection, schedule: Q01DX001 (ip), vehicle: Klucel (hydroxypropylcellulose) (HPC) 100 % of control

CN(C)c1ncnc2c1ncn2C1CCC(CO)C1 (stereo not given)
inactive: dose: 100.0 mg/kg/injection, schedule: Q01DX001 (ip), vehicle: carboxymethylcellulose (CMC) 105 % of control | dose: 200.0 mg/kg/injection, schedule: Q01DX001 (ip), vehicle: carboxymethylcellulose (CMC) 96 % of control
